From patent US7781430B2, “Benzoxazole carboxamides for treating CINV and IBS-D” (Albany Molecular Research, Inc., priority 2005, dated 2010)

Biological target: T1, 5-HT3 receptors (Mus musculus, UniProt P23979)
T1 construct: a group of 5 male or female CD-1 (Crl.) mice; from tissue
T1 sequence (P23979 24-489): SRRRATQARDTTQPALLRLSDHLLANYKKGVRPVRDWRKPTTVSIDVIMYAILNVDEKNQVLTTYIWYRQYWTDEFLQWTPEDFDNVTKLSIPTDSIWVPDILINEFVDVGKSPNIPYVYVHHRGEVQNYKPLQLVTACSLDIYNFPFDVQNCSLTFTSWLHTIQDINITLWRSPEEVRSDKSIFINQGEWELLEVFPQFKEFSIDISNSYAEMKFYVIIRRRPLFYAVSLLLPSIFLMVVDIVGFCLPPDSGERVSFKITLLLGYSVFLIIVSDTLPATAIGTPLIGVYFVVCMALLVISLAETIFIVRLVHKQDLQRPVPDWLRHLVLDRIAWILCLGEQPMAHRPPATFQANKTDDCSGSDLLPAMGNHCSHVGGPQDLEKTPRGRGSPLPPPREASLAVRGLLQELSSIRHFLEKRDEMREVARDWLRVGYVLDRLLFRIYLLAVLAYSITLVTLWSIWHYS
Test: Bezold-Jarisch assay in vivo (inhibition of serotonin induced bradycardia)
Settings: 30 mg/kg orally, CD-1 mice; 5-HT (0.5 mg/kg IV)-induced bradycardia recorded sixty minutes later, pentobarbital-anesthetized
Procedure: Bezold-Jarisch Assay in vivo. […] Arch. Int. Pharmacodyn. 277: 235-252, 1985]. Test substances and vehicle [2% Tween 80] were each administered orally (30 mg/kg) to a group of 5 male or female CD-1 (Crl.) mice each weighing 24±2 g. A dosing volume of 10 mL/kg was used. Sixty minutes later, 5-HT (0.5 mg/kg IV)-induced bradycardia was recorded in pentobarbital (80 mg/kg IP, given 10 minutes before 5-HT)-anesthetized animals.

Row | SMILES | % Inhibition in vivo [%]
1 | COc1ccccc1-c1nc2c(C(=O)NC3CN4CCC3CC4)cccc2o1 (stereo not shown) | 88
2 | CN1C2CCCC1CC(NC(=O)c1cc(Cl)cc3oc(-c4ccccc4)nc13)C2 (stereo not shown) | 40
3 | O=C(NC1CN2CCC1CC2)c1cccc2oc(-c3ccsc3)nc12 (stereo not shown) | 62

Tested on: not given
Test: not given
Settings: not given

Row | SMILES | melting point [°C]
4 | COc1ccc(-c2nc3cccc(C(=O)NC4CC5CCCC(C4)N5C)c3o2)cc1 (stereo not shown) | 160 to 162
5 | O=C(NC1CN2CCC1CC2)c1cccc2nc(-c3ccc(F)cc3)oc12 (stereo not shown) | 185 to 187
6 | COc1ccc(-c2nc3cccc(C(=O)NC4CN5CCC4CC5)c3o2)cc1 (stereo not shown) | 166 to 167
7 | CN1C2CCCC1CC(NC(=O)c1cccc3oc(-c4ccc(Cl)cc4)nc13)C2 (stereo not shown) | 185 to 187
8 | COc1ccc(-c2nc3c(C(=O)NC4CC5CCCC(C4)N5C)cccc3o2)cc1 (stereo not shown) | 103 to 105
9 | COc1ccc(-c2nc3c(C(=O)NC4CN5CCC4CC5)cccc3o2)cc1 (stereo not shown) | 108 to 109
10 | CN1C2CCCC1CC(NC(=O)c1cccc3nc(-c4ccc(Cl)cc4)oc13)C2 (stereo not shown) | 193 to 196
11 | Cc1nccn1CCNC(=O)c1cccc2oc(-c3ccccc3)nc12 | 125 to 127
12 | O=C(NC1CCNCC1)c1cccc2nc(-c3ccccc3)oc12 | 191 to 193
13 | O=C(NC1CN2CCC1CC2)c1cccc2nc(-c3ccccc3)oc12 (stereo not shown) | 179 to 180
14 | O=C(NC1CN2CCC1CC2)c1cccc2oc(-c3ccc(F)cc3)nc12 (stereo not shown) | 208 to 209
15 | CN1C2CCCC1CC(NC(=O)c1cccc3oc(-c4ccc(F)cc4)nc13)C2 (stereo not shown) | 197 to 199
16 | O=C(NC1CN2CCC1CC2)c1cccc2oc(-c3ccc(Cl)cc3)nc12 (stereo not shown) | 194 to 196
17 | O=C(NC1CN2CCC1CC2)c1cccc2nc(-c3ccc(Cl)cc3)oc12 (stereo not shown) | 181 to 183
18 | CN1C2CCCC1CC(NC(=O)c1cccc3nc(-c4ccc(F)cc4)oc13)C2 (stereo not shown) | 229 to 231
19 | CN1C2CCC1CC(NC(=O)c1cccc3nc(-c4ccccc4)oc13)C2 (stereo not shown) | 164 to 166
20 | Cc1nccn1CCCNC(=O)c1cccc2oc(-c3ccccc3)nc12 | 145 to 148

The next lines start with the values.

Row | melting point [°C] | SMILES
21 | 209 to 210 | CN1CCC(NC(=O)c2cccc3nc(-c4ccccc4)oc23)CC1
22 | 170 to 172 | CN1CCC(NC(=O)c2cc(Cl)cc3oc(-c4ccccc4)nc23)CC1
23 | 180 to 183 | O=C(NC1CN2CCC1CC2)c1cc(Cl)cc2oc(-c3ccccc3)nc12 (stereo not shown)
24 | 169 to 171 | O=C(NC1CCNCC1)c1cc(Cl)cc2oc(-c3ccccc3)nc12
25 | 149 to 151 | CN1C2CCC1CC(NC(=O)c1cccc3oc(-c4ccccc4)nc13)C2 (stereo not shown)
26 | 126 to 128 | CN1CCC(NC(=O)c2cccc3oc(-c4ccccc4)nc23)CC1
27 | 77 to 80 | O=C(NC1CN2CCC1CC2)c1cccc2oc(-c3ccccc3)nc12 (stereo not shown)
28 | 199 to 201 | CN1C2CCCC1CC(NC(=O)c1cc(Cl)cc3nc(-c4ccccc4)oc13)C2 (stereo not shown)
29 | 99 to 102 | O=C(NC1CCNCC1)c1cccc2oc(-c3ccccc3)nc12
30 | 182 to 185 | CN1C2CCCC1CC(NC(=O)c1cccc3oc(-c4ccccc4)nc13)C2 (stereo not shown)
31 | 283 to 285 | O=C(NC1CN2CCC1CC2)c1cc(Cl)cc2nc(-c3ccccc3)oc12 (stereo not shown)
